Results on nine molecules are retold here after patent US8063225B2, “Tricyclic compound derivatives useful in the treatment of neoplastic diseases, inflammatory disorders and immunomodulatory disorders” (Chembridge Corporation, priority 2006, dated 2011).

Each structure is given as a SMILES string.

Assay [1] has as its target T1, IGF1R tyrosine kinase (Homo sapiens, UniProt P08069).
T1 construct: 6×His- or GST-tagged kinase domain fragments of the corresponding RTKs expressed in baculovirus system; host or cells: baculovirus system
Nature of the assay: IGF1R tyrosine kinase assay (Kinase-Glo ATP depletion or PT66/PT100 AlphaScreen). The following applies: biochemical tyrosine kinase assay. The method in brief: (§1)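 Baculovirus-expressed His- or GST-tagged kinase domains with poly(Glu-Tyr) substrate, 10 μM ATP, pH 7.5 Tris with MgCl2/MnCl2. Kinase-Glo: 60 min at 37 °C, residual ATP by luminescence; AlphaScreen: 30 min at RT, then anti-phosphotyrosine beads 60 min. Eight concentrations, 1 nM to 20 μM; IC50 by nonlinear regression.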
A general note: Kinase-Glo measures the ATP left after a reaction by luminescence.

Assay [2] has as its target T2, Jak2 (Homo sapiens, UniProt O60674).
T2 construct: 6×His- or GST-tagged kinase domain fragments of the corresponding RTKs expressed in baculovirus system; host or cells: baculovirus system
Description: Tyrosine kinase assay (Kinase-Glo or AlphaScreen), Jak2. The settings on record: biochemical tyrosine kinase assay. The method in brief:
as §1

The test system of assay [3] is K562. Description: Cell proliferation inhibition, Cell Titer-Glo, K562. Format: cell-based. The settings on record: Homo sapiens; cell proliferation assay, K562 cells. The method in brief:
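K562 cells were seeded at 2500-5000 cells per well in white, clear-bottomed 384-well culture plates and treated with dilutions of test compounds for typically 3 days. Viable cells were quantified with the Cell Titer-Glo Luminescent Cell Viability Assay (Promega), which measures total ATP, read on a luminescence plate reader to derive IC50 values for proliferation inhibition.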
Background: Cellular ATP, detected with luciferase, serves as a proxy for viable cell number.

For assay [4], the target named is T3, InsR (Homo sapiens, UniProt P06213).
T3 construct: 6×His- or GST-tagged kinase domain fragments of the corresponding RTKs expressed in baculovirus system; host or cells: baculovirus system
T3 sequence (P06213 1023-1298 limits assumed, species assumed): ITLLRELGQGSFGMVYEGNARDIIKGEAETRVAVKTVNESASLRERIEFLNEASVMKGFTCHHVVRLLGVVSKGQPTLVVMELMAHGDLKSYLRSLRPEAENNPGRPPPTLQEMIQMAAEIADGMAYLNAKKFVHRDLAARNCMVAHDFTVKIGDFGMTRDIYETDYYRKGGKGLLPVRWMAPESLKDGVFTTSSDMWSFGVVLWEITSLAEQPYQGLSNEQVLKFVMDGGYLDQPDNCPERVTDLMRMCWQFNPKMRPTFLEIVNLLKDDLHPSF
Nature of the assay: Tyrosine kinase assay (Kinase-Glo or AlphaScreen), InsR. The following applies: biochemical tyrosine kinase assay. The method in brief: as §1

In assay [5] the target is T4, Alk (Homo sapiens, UniProt Q9UM73).
T4 construct: 6×His- or GST-tagged kinase domain fragments of the corresponding RTKs expressed in baculovirus system; host or cells: baculovirus system
T4 sequence (Q9UM73 1116-1392 limits assumed, species assumed): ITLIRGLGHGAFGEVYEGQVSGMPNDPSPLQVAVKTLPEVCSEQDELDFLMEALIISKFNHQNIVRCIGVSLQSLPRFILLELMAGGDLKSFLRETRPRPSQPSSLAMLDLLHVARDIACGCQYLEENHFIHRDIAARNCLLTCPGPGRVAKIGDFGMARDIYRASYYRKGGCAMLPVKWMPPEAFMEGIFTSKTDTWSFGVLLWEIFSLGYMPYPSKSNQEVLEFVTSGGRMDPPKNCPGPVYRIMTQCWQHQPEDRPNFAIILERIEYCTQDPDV
Description: Tyrosine kinase assay (Kinase-Glo or AlphaScreen), Alk. The settings on record: biochemical tyrosine kinase assay. The gist of the method: as §1

The test system of assay [6] is Karpas-299. Description: Cell proliferation inhibition, Cell Titer-Glo, Karpas-299. Format: cell-based. The following applies: Homo sapiens; cell proliferation assay, Karpas-299 cells. The method in brief:
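Karpas 299 cells were seeded into white, clear-bottomed 384-well culture plates at 2500-5000 cells per well and exposed to serial dilutions of test compounds for about 3 days. Viable cell numbers were then measured with the Cell Titer-Glo Luminescent Cell Viability Assay (Promega), which detects total ATP, and IC50 values for proliferation inhibition were derived.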

Assay [7] has as its system H929 (multiple myeloma). Description: Cell proliferation inhibition, Cell Titer-Glo, H929. Format: cell-based. The settings on record: Homo sapiens, NCI-H929; cell proliferation assay, H929 cells. How it is done:
IGF1R and other tyrosine kinase inhibitors can inhibit the proliferation of certain cancer cell lines indicating their possible therapeutic utility for treating the corresponding cancer types. Cancer cell lines of interest and control normal lines, including CHO, HEK293, BA/F3, MM1, H929, COLO205, PC3, DU145, MCF7, Panc1, ACHN, Hep G2, H460, K562, TT, U87-G, CAOV-3, SK-MEL5, Karpas 299, are plated in white, clear-bottomed 384-well cell culture plates at 2500-5000 cells per well and supplied with dilutions of tested compounds After a desired period of time (typically 3 days), the number of viable cells is quantitated by using Cell Titer-Glo Luminescent Cell Viability Assay (Promega), a cell proliferation assay system based on detection of total amount of ATP present as a measure of cell metabolic activity. The plated cells are mixed with the Cell Titer-Glo developing reagent and counted in a luminescence multiwell plate reader according to the standard manufacturer's protocol to generate IC50 curves for cell proliferation inhibition.
IGF1R and other tyrosine kinase inhibitors can inhibit the proliferation of certain cancer cell lines indicating their possible therapeutic utility for treating the corresponding cancer types. Cancer cell lines of interest and control normal lines, including CHO, HEK293, BA/F3, COLO205, PC3, DU145, MCF7, Panc1, ACHN, Hep G2, H460, K562, TT, U87-MG, CAOV-3, SK-MEL5, Karpas 299 and human multiple myeloma cell lines H929, MM1s, MM1r, UTMC2, CPM2, KMS11, My5, KMS12PE, My7, JJN3, KMS18, U266, SKMM2, RPMI-8226 are plated in white, clear-bottomed 384-well cell culture plates at 2500-5000 cells per well and supplied with dilutions of tested compounds After a desired period of time (typically 3 days), the number of viable cells is quantitated by using Cell Titer-Glo Luminescent Cell Viability Assay (Promega), a cell proliferation assay system based on detection of total amount of ATP present as a measure of cell metabolic activity. The plated cells are mixed with the Cell Titer-Glo developing reagent and counted in a luminescence multiwell plate reader according to the standard manufacturer's protocol to generate IC50 curves for cell proliferation inhibition. Results are typically reported as percent of growth (% viability =(OD72h(compound)−ODday0))/(OD72h(no compound)−ODday0). Alternatively, viable cells are quantitated by using the conventional colorimetric MTT assay. The MTT assay is based on the cleavage of the yellow tetrazolium salt MTT to purple formazan crystal by metabolic active cells. The formazan is then solubilized, and the concentration determined by optical density at 570 nm. The cells plated and incubated with a compound as described above are supplemented with the solution of MTT and incubated for 2-3 hours. The growth medium is removed and dimethyl sulfoxide is added into each well to dissolve the formazan. The absorbance is measured on an ELISA plate reader with a test wavelength of 570 nm and a background subtraction wavelength of 630 nm to obtain sample signal (OD570-OD630). […] The results are reported in terms of IC50 value for a particular compound and a cell line in the standard 3-day proliferation assay using Cell Titer-Glo. […] The results are reported in terms of IC50 value for a particular compound and a cell line in the standard 3-day proliferation assay using MTT assay.

Assay [8] concerns Ba/F3. Description: Cell proliferation inhibition, Cell Titer-Glo, Ba/F3. The settings on record: Mus musculus, BaF3; cell proliferation assay, Ba/F3 cells. Format: cell-based. The gist of the method:
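Ba/F3 cells were seeded at 2500-5000 cells per well in white, clear-bottomed 384-well culture plates and exposed to serial dilutions of test compounds for 3 days. Cell Titer-Glo Luminescent Cell Viability Assay (Promega) reagent, which measures total ATP as an indicator of metabolic activity, was added. Luminescence was read on a multiwell plate reader to derive IC50 values for inhibition of proliferation.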

T2 sequence (O60674 849-1124 limits assumed, species assumed): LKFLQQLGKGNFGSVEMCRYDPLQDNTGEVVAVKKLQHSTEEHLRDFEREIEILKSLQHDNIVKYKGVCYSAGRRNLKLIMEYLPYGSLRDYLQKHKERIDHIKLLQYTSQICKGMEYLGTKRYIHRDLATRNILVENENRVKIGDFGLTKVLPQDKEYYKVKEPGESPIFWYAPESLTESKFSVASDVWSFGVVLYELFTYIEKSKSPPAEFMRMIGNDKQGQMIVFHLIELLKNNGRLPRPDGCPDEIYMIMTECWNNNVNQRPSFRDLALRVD
T1 sequence (P08069 999-1274 limits assumed): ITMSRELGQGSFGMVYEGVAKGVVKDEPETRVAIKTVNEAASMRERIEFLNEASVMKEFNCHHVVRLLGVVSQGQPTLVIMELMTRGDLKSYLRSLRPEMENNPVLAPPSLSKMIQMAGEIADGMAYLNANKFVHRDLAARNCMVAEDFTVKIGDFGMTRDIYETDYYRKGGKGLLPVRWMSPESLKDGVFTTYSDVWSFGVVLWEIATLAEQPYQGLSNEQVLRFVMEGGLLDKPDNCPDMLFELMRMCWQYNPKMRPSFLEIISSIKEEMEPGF

On to `Cc1ccc(OC[C@H](O)CNc2cc[nH]c(=O)c2-c2nc3cc4c(cc3[nH]2)C(=O)N(CC(C)(C)CN(C)C)C4=O)c(C)c1` [compound 116], for which the IC50 in assay [1] is under 0.5 µM; in assay [2] it was 0.5 to 5 µM; in assay [3], over 15 µM; in assay [4] it was under 0.5 µM; in assay [5], 5 to 15 µM; in assay [6] it was 5 to 15 µM. Also, the IC50 in assay [7] and in assay [8] was over 15 µM throughout.
Turning to `CN1CCC(N2C(=O)c3cc4nc(-c5c(NCC(O)COc6cccc(Cl)c6)cc[nH]c5=O)[nH]c4cc3C2=O)CC1` (stereo not drawn) [compound 38], the IC50 in assay [1] is 0.5 to 5 µM; in assay [2], 0.5 to 5 µM; in assay [3], 5 to 15 µM; in assay [4] it was 0.5 to 5 µM; in assay [5], 0.5 to 5 µM; in assay [6], over 15 µM. In addition, the figures for the IC50 in assay [7] and in assay [8] were 0.5 to 5 µM and over 15 µM, respectively.
As for `Cc1c(Cl)cccc1OC[C@H](O)CNc1cc[nH]c(=O)c1-c1nc2cc3c(cc2[nH]1)C(=O)N(C1CCN(CCO)CC1)C3=O` [compound 124], the IC50 in assay [1] is 0.5 to 5 µM; in assay [2], 0.5 to 5 µM; in assay [3] it was over 15 µM; in assay [4], 0.5 to 5 µM; in assay [5] it was 0.5 to 5 µM; in assay [6], 5 to 15 µM. Besides, the IC50 in assay [7] and in assay [8] was over 15 µM in each case.
`COc1ccc(OCC(O)CNc2cc[nH]c(=O)c2-c2nc3cc4c(cc3[nH]2)C(=O)N(C2CCN(C)CC2)C4=O)cc1` (stereo not drawn) [compound 42]: the IC50 was under 0.5 µM in assay [1]; 5 to 15 µM in assay [2]; 5 to 15 µM in assay [3]; 0.5 to 5 µM in assay [4]; 5 to 15 µM in assay [5]; over 15 µM in assay [6]. Also, the IC50 was 5 to 15 µM in assay [7] and over 15 µM in assay [8].
Turning to `Cc1c(Cl)cccc1OC[C@H](O)CNc1cc[nH]c(=O)c1-c1nc2cc3c(cc2[nH]1)C(=O)N(C1CCN(CCN(C)C)CC1)C3=O` [compound 127], the IC50 in assay [1] was under 0.5 µM; in assay [2], 0.5 to 5 µM; in assay [3] it was over 15 µM; in assay [4] it was 0.5 to 5 µM; in assay [5], 0.5 to 5 µM; in assay [6], over 15 µM. Moreover, the IC50 in assay [7] and in assay [8] was over 15 µM each time.
`Cc1ccc(OC[C@H](O)CNc2cc[nH]c(=O)c2-c2nc3cc4c(cc3[nH]2)C(=O)N(C2CCN(CCN(C)C)CC2)C4=O)c(C)c1` [compound 126]: the IC50 in assay [1] was under 0.5 µM; in assay [2], 0.5 to 5 µM; in assay [3] it was 5 to 15 µM; in assay [4] it was 0.5 to 5 µM; in assay [5], 5 to 15 µM; in assay [6], 0.5 to 5 µM. Moreover, the results for the IC50 in assay [7] and in assay [8] were 5 to 15 µM and 0.5 to 5 µM, respectively.
As to `O=C1c2cc3nc(-c4c(NC[C@@H](O)COc5c(F)ccc(Cl)c5F)cc[nH]c4=O)[nH]c3cc2C(=O)N1C1CCN(CCO)CC1` [compound 125], the IC50 in assay [1] is under 0.5 µM; in assay [2] it was 0.5 to 5 µM; in assay [3] it was over 15 µM; in assay [4], 0.5 to 5 µM; in assay [5], 0.5 to 5 µM; in assay [6] it was over 15 µM. The IC50 in assay [7] and in assay [8] was over 15 µM throughout.
Regarding `O=C1c2cc3nc(-c4c(NC[C@@H](O)COc5c(F)ccc(Cl)c5F)cc[nH]c4=O)[nH]c3cc2C(=O)N1C1CCN(CCCO)CC1` [compound 136], the IC50 in assay [1] was under 0.5 µM; in assay [2], 0.5 to 5 µM; in assay [3], over 15 µM; in assay [4], 0.5 to 5 µM; in assay [5], 0.5 to 5 µM; in assay [6] it was over 15 µM. Moreover, the IC50 in assay [7] and in assay [8] was over 15 µM throughout.
`COc1ccc2c(ccn2C[C@H](O)CNc2cc[nH]c(=O)c2-c2nc3cc4c(cc3[nH]2)C(=O)N(C2CCN(C)CC2)C4=O)c1` [compound 113]: the IC50 in assay [1] was 0.5 to 5 µM; in assay [2] it was 0.5 to 5 µM; in assay [3], over 15 µM; in assay [4] it was 0.5 to 5 µM; in assay [5], under 0.5 µM; in assay [6], over 15 µM. Also, the IC50 in assay [7] and in assay [8] was over 15 µM each time.

By IC50 is commonly meant the midpoint of a concentration-inhibition curve. A high value points to weaker potency.
